Values joined by “and” are separate entries in the source; they are usually repeats but may differ in a detail not shown here. Equal values may be shown once.
tested on: Uromyces appendiculatus; assay: In vivo preventive test on Uromyces appendiculatus (bean rust); conditions: Table B2, dose 100 ppm, bean plants, comparison with isopropyl analogues of WO2012/059497
Protocol: EXAMPLE B: IN VIVO PREVENTIVE TEST ON UROMYCES APPENDICULATUS (BEAN RUST) Solvent: 5% by volume of Dimethyl sulfoxide • 10% by volume of Acetone Emulsifier: 1 μL of Tween® 80 per mg of active ingredient The active ingredients are made soluble and homogenized in a mixture of Dimethyl sulfoxide/Acetone//Tween® 80 and then diluted in water to the desired concentration. The young plants of bean are treated by spraying the active ingredient prepared as described above. Control plants are treated only with an aqueous solution of Acetone/Dimethyl sulfoxide/Tween® 80. After 24 hours, the plants are contaminated by spraying the leaves with an aqueous suspension of Uromyces appendiculatus spores. The contaminated bean plants are incubated for 24 hours at 20° C. and at 100% relative humidity and then for 10 days at 20° C. and at 70-80% relative humidity. The test is evaluated 11 days after the inoculation. 0% means an efficacy which corresponds to that of the control plants while an efficacy of 100% means that no disease is observed.

SMILES	Efficacy
Cc1cc(C(C)C)c(CN(C(=O)c2c(C(F)F)nn(C)c2F)C2CC2)s1 [CMP1, N-cyclopropyl-3-(difluoromethyl)-5-fluoro-N-[(3-isopropyl-5-methyl-2-thienyl)methyl]-1-methyl-1H-pyrazole-4-carboxamide, reference compound]	65%
Cc1cc(C(C)C)c(CN(C(=O)c2c(C(F)F)nn(C)c2Cl)C2CC2)s1 [CMP2, 5-chloro-N-cyclopropyl-3-(difluoromethyl)-N-[(3-isopropyl-5-methyl-2-thienyl)methyl]-1-methyl-1H-pyrazole-4-carboxamide, reference compound]	0%
Cc1cc(C2(C)CC2)c(CN(C(=O)c2c(C(F)F)nn(C)c2F)C2CC2)s1 [I.11]	100%
Cc1cc(C2(C)CC2)c(CN(C(=O)c2c(C(F)F)nn(C)c2Cl)C2CC2)s1 [I.12]	100% and 92%

tested on: not listed separately; assay: log P determination by HPLC on reversed-phase column (C 18), EEC Directive 79/831 Annex V.A8; type: physicochemical; conditions: C 18 reversed phase, 40° C., 0.1% aqueous formic acid and acetonitrile, linear gradient 10% to 90% acetonitrile
Protocol: In table 1, the log P values were determined in accordance with EEC Directive 79/831 Annex V.A8 by HPLC (High Performance Liquid Chromatography) on a reversed-phase column (C 18), using the method described below: Temperature: 40° C.; Mobile phases: 0.1% aqueous formic acid and acetonitrile; linear gradient from 10% acetonitrile to 90% acetonitrile. Calibration was carried out using unbranched alkan-2-ones (comprising 3 to 16 carbon atoms) with known log P values (determination of the log P values by the retention times using linear interpolation between two successive alkanones). lambda-max-values were determined using UV-spectra from 200 nm to 400 nm and the peak values of the chromatographic signals.

SMILES	logP
Cn1nc(C(F)F)c(C(=O)N(Cc2cccnc2C2(C)CC2)C2CC2)c1F [I.01]	1.28
Cn1nc(C(F)F)c(C(=S)N(Cc2cccnc2C2(C)CC2)C2CC2)c1Cl [I.19]	1.63
Cn1nc(C(F)F)c(C(=S)N(Cc2cccnc2C2(C)CC2)C2CC2)c1F [I.20]	1.53
Cc1cnc(C2(C)CC2)c(CN(C(=S)c2c(C(F)F)nn(C)c2F)C2CC2)c1 [I.22]	1.59
Cn1nc(C(F)F)c(C(=S)N(Cc2cc(Cl)cnc2C2(C)CC2)C2CC2)c1F [I.23]	3.52
Cn1nc(C(F)F)c(C(=O)N(Cc2cc(C3=CCCC3)cnc2C2(C)CC2)C2CC2)c1F [I.29]	2.05
Cn1nc(C(F)F)c(C(=O)N(Cc2cc(-c3ccsc3)cnc2C2(C)CC2)C2CC2)c1F [I.30]	2.12

More lines, now with the values ahead:

logP	SMILES
1.41	Cn1nc(C(F)F)c(C(=O)N(Cc2cccnc2C2(C)CC2)C2CC2)c1Cl [I.02]
2.88	Cn1nc(C(F)F)c(C(=O)N(Cc2cc(Cl)cnc2C2(C)CC2)C2CC2)c1F [I.03]
3.09	Cn1nc(C(F)F)c(C(=O)N(Cc2cc(Cl)cnc2C2(C)CC2)C2CC2)c1Cl [I.04]
1.42	Cc1cnc(C2(C)CC2)c(CN(C(=O)c2c(C(F)F)nn(C)c2F)C2CC2)c1 [I.05]
1.54	Cc1cnc(C2(C)CC2)c(CN(C(=O)c2c(C(F)F)nn(C)c2Cl)C2CC2)c1 [I.06]
3.12	Cn1nc(C(F)F)c(C(=O)N(Cc2cc(Br)cnc2C2(C)CC2)C2CC2)c1Cl [I.07]
2.91	Cn1nc(C(F)F)c(C(=O)N(Cc2cc(Br)cnc2C2(C)CC2)C2CC2)c1F [I.08]
3.70	Cn1nc(C(F)F)c(C(=O)N(Cc2sccc2C2(C)CC2)C2CC2)c1F [I.09]
3.85	Cn1nc(C(F)F)c(C(=O)N(Cc2sccc2C2(C)CC2)C2CC2)c1Cl [I.10]
4.13	Cc1cc(C2(C)CC2)c(CN(C(=O)c2c(C(F)F)nn(C)c2F)C2CC2)s1 [I.11]
4.27	Cc1cc(C2(C)CC2)c(CN(C(=O)c2c(C(F)F)nn(C)c2Cl)C2CC2)s1 [I.12]
3.37	Cn1nc(C(F)F)c(C(=O)N(Cc2sccc2C2(Cl)CC2)C2CC2)c1F [I.13]
3.55	Cn1nc(C(F)F)c(C(=O)N(Cc2sccc2C2(Cl)CC2)C2CC2)c1Cl [I.14]
3.92	Cc1cc(C2(Cl)CC2)c(CN(C(=O)c2c(C(F)F)nn(C)c2Cl)C2CC2)s1 [I.16]
3.37	COC1(c2cc(C)sc2CN(C(=O)c2c(C(F)F)nn(C)c2F)C2CC2)CC1 [I.17]
4.15	Cn1nc(C(F)F)c(C(=O)N(Cc2sc(Br)cc2C2(Cl)CC2)C2CC2)c1F [I.18]
1.69	Cc1cnc(C2(C)CC2)c(CN(C(=S)c2c(C(F)F)nn(C)c2Cl)C2CC2)c1 [I.21]
3.71	Cn1nc(C(F)F)c(C(=S)N(Cc2cc(Cl)cnc2C2(C)CC2)C2CC2)c1Cl [I.24]
4.19	Cn1nc(C(F)F)c(C(=S)N(Cc2sccc2C2(Cl)CC2)C2CC2)c1Cl [I.25]
4.56	Cc1cc(C2(Cl)CC2)c(CN(C(=S)c2c(C(F)F)nn(C)c2Cl)C2CC2)s1 [I.26]
4.44	Cn1nc(C(F)F)c(C(=S)N(Cc2sccc2C2(C)CC2)C2CC2)c1Cl [I.27]
4.28	Cn1nc(C(F)F)c(C(=S)N(Cc2sccc2C2(C)CC2)C2CC2)c1F [I.28]
2.33	Cn1nc(C(F)F)c(C(=O)N(Cc2cc(-c3ccccc3)cnc2C2(C)CC2)C2CC2)c1Cl [I.31]
1.91	C=Cc1cnc(C2(C)CC2)c(CN(C(=O)c2c(C(F)F)nn(C)c2Cl)C2CC2)c1 [I.32]

same assay, conditions: reversed-phase C18 HPLC column, C 18 reversed phase, 40° C., 0.1% aqueous formic acid and acetonitrile, linear gradient 10% to 90% acetonitrile

chromatographic logP	SMILES
3.76	Cc1cc(C2(Cl)CC2)c(CN(C(=O)c2c(C(F)F)nn(C)c2F)C2CC2)s1 [I.15, N-{[3-(1-chlorocyclopropyl)-5-methyl-2-thienyl]methyl}-N-cyclopropyl-3-(difluoromethyl)-5-fluoro-1-methyl-1H-pyrazole-4-carboxamide]
0.7	CC1(c2ccsc2CNC2CC2)CC1 [IIa.01, N-{[3-(1-methylcyclopropyl)-2-thienyl]methyl}cyclopropanamine]
0.87	ClC1(c2ccsc2CNC2CC2)CC1 [IIa.02, N-{[3-(1-chlorocyclopropyl)-2-thienyl]methyl}cyclopropanamine]
1.2	Cc1cc(C2(Cl)CC2)c(CNC2CC2)s1 [IIa.03, N-{[3-(1-chlorocyclopropyl)-5-methyl-2-thienyl]methyl}cyclopropanamine]
1.07	COC1(c2cc(C)sc2CNC2CC2)CC1 [IIa.04, N-{[3-(1-methoxycyclopropyl)-5-methyl-2-thienyl]methyl}cyclopropanamine]
2.41	O=Cc1sccc1C1(Cl)CC1 [IV.01, 3-(1-chlorocyclopropyl)thiophene-2-carbaldehyde]
2.75	Cc1cc(C2(Cl)CC2)c(C=O)s1 [IV.02, 3-(1-chlorocyclopropyl)-5-methylthiophene-2-carbaldehyde]
2.14	CC1(c2ccsc2CBr)CC1 [Va1.01, 2-(bromomethyl)-3-(1-methylcyclopropyl)thiophene]
2.54	Cc1cc(C2(C)CC2)c(CBr)s1 [Va1.02, 2-(bromomethyl)-5-methyl-3-(1-methylcyclopropyl)thiophene]
2.09	CC1(c2ccsc2CO)CC1 [Vc.01, [3-(1-methylcyclopropyl)-2-thienyl]methanol]
2.52	Cc1cc(C2(C)CC2)c(CO)s1 [Vc.02, [5-methyl-3-(1-methylcyclopropyl)-2-thienyl]methanol]
0.63	N#CC1(c2ccsc2CO)CC1 [Vc.03, 1-[2-(hydroxymethyl)-3-thienyl]cyclopropanecarbonitrile]
